{"source": "patent EP4778522A1", "about": "“USE OF PYRROLOPYRIMIDINE COMPOUND AND COMPOSITION THEREOF” (Guangzhou Joyo Pharmatech Co., Ltd., priority 2023, dated 2025)", "key": {"[1]": {"system": "monobenzone-induced mouse vitiligo model", "assay": "Monobenzone-induced mouse vitiligo model: hair depigmentation area scoring", "assay_type": "in vivo, C57BL/6 mice", "parameters": "Hair depigmentation area scoring: scale not given here", "procedure": "• 1) Animals: C57BL/6 mice, specific pathogen-free (SPF), with equal numbers of females and males. The mice were 6-8 weeks old at grouping, with 10 mice per group. The animals were provided by Charles River Laboratories. • 2) Reagents, positive drugs and test drugs\nMonobenzone induction method: after 1 week of adaptive feeding of all the animals, modeling was performed and all black hairs on the back of the mice were removed by a shaver. 10 animals were randomly selected as a normal control group and applied with 50 mg of vaseline once a day; and the remaining 80 animals were used for modeling and applied with 50 mg of 40% monobenzone depigmentation ointment once a day. The applying area of the normal control group and the model group was 2 cm*3 cm of the fixed part of the back, and the modeling was continuously performed for 103 days. In order to prevent the phenomenon that the animals lick the drugs, after the animals were applied with a modeling agent, they needed to be separately placed in an independent cage without padding for a period of time to naturally dry the modeling agent, and then they were placed in a rearing cage for normal rearing. During the modeling process, new hairs grown in the alopecic areas of the backs of the mice were shaved by the shaver and then applied with the drug.\nThe 40% monobenzone depigmentation ointment was applied every day. After modeling for 53 days, according to a depigmentation area score (see scoring criteria of Table 9), 70 animals successfully modeled in modeling group (score ≥ 2) were randomly divided into 7 groups with 10 mice per group. The mean depigmentation area score of the animals in each group was basically consistent before the administration, and the day of grouping was defined as day 0 of the administration treatment period. Table 8 Grouping and administration regimen\nDuring the whole experiment process, the mice in normal control group (G1) were applied with 50 mg of vaseline once a day; and the mice in each model group (G2-G8) were applied with 50 mg of 40% monobenzone ointment once a day. After modeling for 53 days, the mice were grouped and subjected to drug treatment after grouping consecutively for 50 days. The modeling operation was maintained during the drug intervention period. The mice were applied with the drug twice a day for treatment at an interval of 6 hours or more. […]"}, "[2]": {"system": "monobenzone-induced mouse vitiligo model", "assay": "Monobenzone-induced mouse vitiligo model: skin pathological analysis of melanin-containing hair follicles", "assay_type": "in vivo, C57BL/6 mice", "conditions": "1.5% ruxolitinib ointment", "procedure": "The mice were euthanized within 2-4 hours after the last administration, and approximately 1 cm^2 of the skin in the center of the depilated part of the mice was taken and fixed with 4% paraformaldehyde. The animal skin tissues were fixed with 4% paraformaldehyde, dehydrated, embedded with paraffin, sectioned and then subjected to HE staining. The stained sections were photographed by white light panoramic scanning, histopathological changes of the skin tissues and inflammatory cell infiltration were observed, and the number of melanin-containing hair follicles and/or the proportion of the melanin-containing hair follicles in the skin were quantitatively analyzed. The panoramic scanning files were opened by using CaseViewer software, a picture view with the length of about 3.8 mm was randomly selected, and the pictures were saved. The number of all the hair follicles and the number of the melanin-containing hair follicles in the picture were counted respectively by using ipwin32 software. The proportion of the melanin-containing hair follicles was calculated according to the following formula: Proportion of melanin-containing hair follicles = number of melanin-containing follicles/number of all follicles"}, "[3]": {"system": "imiquimod-induced C3H/HeJ mice alopecia areata model", "assay": "Imiquimod-induced mouse alopecia areata model: hair growth", "assay_type": "in vivo", "conditions": "Baricitinib 10 mg/kg oral by gavage twice a day for one month, Day 30; for Newly grown hair score: score 0-5", "procedure": "• 1) Animals: female C3H/He mice, SPF, aged 6-8 weeks at grouping. The animals were provided by Beijing Viewsolid Biotech. • 2) Reagents, positive drugs and test drugs\nAfter one week of adaptive feeding of C3H/HeJ mice: modeling was performed by applying imiquimod ointment to the neck, 3 times a week. The mice were carefully taken out, and about 0.05 g of 5% imiquimod ointment was dipped with a clean medical cotton swab and then applied evenly to the skin on the neck over a range of about 1.5 cm×1.5 cm. Before each application, the local part was cleaned by normal saline to remove the residual drug in the previous time. The continuous administration time was no longer than 10 weeks. When alopecia areata with an area size > 1 cm×1 cm was formed at the administration part, the administration was stopped, proving that a preparation model was successful. The mice in the normal control group were modeled by using blank ointment (vaseline ointment).\nDuring the period from the first administration to the end of the last administration after the alopecia areata modeling was successful, the alopecia areata part of each mouse was photographed once every 3 days, the photographing distance, angle and magnification times were fixed, and the hair growth of the alopecic areas on the backs of the mice was recorded.\nVisual quantification of the alopecia area images was performed using ImageJ software. The hair growth area (a) and hair loss area (b) were calculated. The hair growth rate was counted and analyzed: hair growth rate (%) = (a/b)* 100%. The newly grown hairs at the alopecia areata part of the mice in each group were scored based on the hair growth rate. Table 14 Scoring criteria of newly grown hairs"}, "[4]": {"system": "imiquimod-induced C3H/HeJ mice alopecia areata model", "assay": "Imiquimod-induced mouse alopecia areata model: number of hair follicles in skin", "assay_type": "in vivo", "conditions": "Baricitinib 10 mg/kg oral by gavage twice a day for one month, skin at alopecia areata part", "procedure": "After the animals were anesthetized and euthanized, the complete skin tissue of the alopecic area was cut along the junction between the normal skin of the back of the mouse and the alopecic area and perpendicular to the skin surface. A part of the tissue was taken, conventionally dehydrated and embedded. The remaining tissue was stored in a refrigerator at -80°C for later use.\nThe embedded skin tissue was cut into 3 µm-thick sections, and then the sections were dewaxed in xylene, hydrated by gradient ethanol, H&E stained, dehydrated, cleared and mounted. The hair follicles in skin tissue sections from each group were microscopically observed and photographed. The mean number of the hair follicles was calculated using Image J software."}, "[5]": {"conditions": "30 mg topical twice a day for 50 days"}}, "note": "“And” between values parts separate entries of the source, which are not always exact repeats. Equal entries are not always repeated. Marks after values point to notes of the source that are not given here."}
{"smiles": "C=CC[C@@H]1/C=C(\\C)C[C@H](C)C[C@H](OC)[C@H]2O[C@@](O)(C(=O)C(=O)N3CCCC[C@H]3C(=O)O[C@H](/C(C)=C/[C@@H]3CC[C@@H](O)[C@H](OC)C3)[C@H](C)[C@@H](O)CC1=O)[C@H](C)C[C@@H]2OC", "note": "[tacrolimus, reference compound]", "values": [{"measurement": "Hair depigmentation area scoring", "setting": "[1]; Day 0 (before administration), 0.03% tacrolimus ointment group", "result": 3.60}, {"measurement": "Hair depigmentation area scoring", "setting": "[1]; Day 10, 0.03% tacrolimus ointment, 30 mg topical twice a day", "result": 3.50}, {"measurement": "Hair depigmentation area scoring", "setting": "[1]; Day 20, 0.03% tacrolimus ointment, 30 mg topical twice a day", "result": 3.40}, {"measurement": "Hair depigmentation area scoring", "setting": "[1]; Day 30, 0.03% tacrolimus ointment, 30 mg topical twice a day", "result": 3.40}, {"measurement": "Hair depigmentation area scoring", "setting": "[1]; Day 35, 0.03% tacrolimus ointment, 30 mg topical twice a day", "result": 2.60}, {"measurement": "Hair depigmentation area scoring", "setting": "[1]; Day 38, 0.03% tacrolimus ointment, 30 mg topical twice a day", "result": 2.50}, {"measurement": "Hair depigmentation area scoring", "setting": "[1]; Day 41, 0.03% tacrolimus ointment, 30 mg topical twice a day", "result": 2.30}, {"measurement": "Hair depigmentation area scoring", "setting": "[1]; Day 44, 0.03% tacrolimus ointment, 30 mg topical twice a day", "result": 2.20}, {"measurement": "Hair depigmentation area scoring", "setting": "[1]; Day 47, 0.03% tacrolimus ointment, 30 mg topical twice a day", "result": 2.20}, {"measurement": "Hair depigmentation area scoring", "setting": "[1]; Day 50, 0.03% tacrolimus ointment, 30 mg topical twice a day", "result": 2.20}, {"measurement": "reduction rate of the depigmentation area score", "setting": "[1]; day 50, 0.03% tacrolimus ointment, compared with the model control group", "result": 56.9, "unit": "%"}]}
{"smiles": "N#CC[C@H](C1CCCC1)n1cc(-c2ncnc3[nH]ccc23)cn1", "note": "[ruxolitinib, reference compound]", "values": [{"measurement": "number of the melanin-containing hair follicles, times that of the model control group", "setting": "[2]", "result": "about 6 times"}, {"measurement": "Number of melanin-containing hair follicles", "setting": "[2]; [5]", "result": "41.7±16.7 and 41.7"}, {"measurement": "Proportion of melanin-containing hair follicles (%)", "setting": "[2]; [5]", "result": "29.8 ± 9.9% and 29.8%"}, {"measurement": "Hair depigmentation area scoring", "setting": "[1]; Day 0 (before administration), 1.5% ruxolitinib ointment group", "result": 3.90}, {"measurement": "Hair depigmentation area scoring", "setting": "[1]; Day 10, 1.5% ruxolitinib ointment, 30 mg topical twice a day", "result": "3.80 **"}, {"measurement": "Hair depigmentation area scoring", "setting": "[1]; Day 20, 1.5% ruxolitinib ointment, 30 mg topical twice a day", "result": "3.70 **"}, {"measurement": "Hair depigmentation area scoring", "setting": "[1]; Day 30, 1.5% ruxolitinib ointment, 30 mg topical twice a day", "result": "3.40 **"}, {"measurement": "Hair depigmentation area scoring", "setting": "[1]; Day 35, 1.5% ruxolitinib ointment, 30 mg topical twice a day", "result": "2.90 **"}, {"measurement": "Hair depigmentation area scoring", "setting": "[1]; Day 38, 1.5% ruxolitinib ointment, 30 mg topical twice a day", "result": "2.60 **"}, {"measurement": "Hair depigmentation area scoring", "setting": "[1]; Day 41, 1.5% ruxolitinib ointment, 30 mg topical twice a day", "result": "2.40 **"}, {"measurement": "Hair depigmentation area scoring", "setting": "[1]; Day 44, 1.5% ruxolitinib ointment, 30 mg topical twice a day", "result": "2.30 **"}, {"measurement": "Hair depigmentation area scoring", "setting": "[1]; Day 47, 1.5% ruxolitinib ointment, 30 mg topical twice a day", "result": "2.20 **"}, {"measurement": "Hair depigmentation area scoring", "setting": "[1]; Day 50, 1.5% ruxolitinib ointment, 30 mg topical twice a day", "result": "2.20 **"}, {"measurement": "mean value of the reduction rate of the depigmentation area score", "setting": "[1]; day 50, 1.5% ruxolitinib ointment, 30 mg (5 mg/cm^2) topical", "result": 56.9, "unit": "%"}]}
{"smiles": "CCS(=O)(=O)N1CC(CC#N)(n2cc(-c3ncnc4[nH]ccc34)cn2)C1", "note": "[Baricitinib, reference compound]", "values": [{"measurement": "Hair growth rate (%)", "setting": "[3]; listed as Positive control", "result": "69.58 ± 3.23", "unit": "%"}, {"measurement": "Hair growth rate (%)", "setting": "[3]; listed as positive drug", "result": "69.58 ± 3.23", "unit": "%"}, {"measurement": "Newly grown hair score", "setting": "[3]; listed as Positive control", "result": "4.2 ± 0.2"}, {"measurement": "Newly grown hair score", "setting": "[3]; listed as positive drug", "result": "4.2 ± 0.2"}, {"measurement": "Mean number of hair follicles", "setting": "[4]; listed as Positive control", "result": "40 ± 7.36"}, {"measurement": "Mean number of hair follicles", "setting": "[4]; listed as positive drug", "result": "40 ± 7.36"}]}
